Results on one compound are retold here after patent EP4282522A1, “SILICA-SUPPORTED IONIC LIQUIDS FOR THE REMOVAL OF C[…] AQUEOUS SAMPLES” (Universidade de Aveiro, priority 2022, dated 2023).

This series has as its system Danio rerio embryos. As to conditions: 96 h exposure, cyclophosphamide solution 1306 mg L^-1.
[1] abbreviates: materials: maintenance water after 1.5 h contact with the material.

Experimental: Aiming to identify the ability of this material to decrease and/or remove the toxicity of the water samples treated, an ecotoxicity test was carried out resorting to assays with Danio rerio embryos. […] Assays with embryos of D. rerio were performed according to the Organisation for Economic Co-operation and Development (OECD) guideline 236 on Fish Embryo Acute Toxicity (FET) Test (OECD, 2013), with small adaptations.
Zebrafish embryos were exposed for 96 h, at a temperature of 26 ± 1 °C and a 16:8h light/dark photoperiod, and observations were made at each 24 h (i.e., 24, 48, 72, and 96 hours) with the help of a stereomicroscope (Zoom-SMZ 1500, Nikon Corporation).
In an embodiment, besides the mortality endpoint (that included coagulated eggs, arrested development, or lack of heartbeat), the sublethal endpoints concerning the hatching rate, final body length, and malformations (such as tail and skeletal malformations, oedemas, and delayed development) (Lammer et al. 2009; "Is the fish embryo toxicity test (FET) with the zebrafish (Danio rerio) a potential alternative for the fish acute toxicity test?" Comp. Biochem. Physiol. Part - C: Toxicol. Pharmacol. 149 (2):196 - 209) were also evaluated. […] Mortality, hatching rate, and percentage of abnormalities were expressed considering the total number of embryos exposed to the different treatments, while the final body length endpoint was evaluated concerning the number of alive larvae at the end of the assay.

Take `O=P1(N(CCCl)CCCl)NCCCO1` (stereo not drawn) [cyclophosphamide]: the “final body length of zebrafish larvae (average length)” value (control 5.4 ± 0.2 cm) is on record as 4.4 ± 0.4 cm. Under setting [1], the malformations is listed as 52% and the mortality is 20%.

In general, mortality refers to the share of the test organisms that died. The low end stands for more survivors, the high end for fewer survivors.
